Publication PMC6149709, “(−)-Epigallocatechin-3-Gallate Inhibits the Chaperone Activity of Plasmodium falciparum Hsp70 Chaperones and Abrogates Their Association with Functional Partners” (Molecules : A Journal of Synthetic Chemistry and Natural …, 2017)
Where two headings read alike, the source gives them in different places.

Experiments:
P. falciparum 3D7 = assay: Antiplasmodial pLDH growth inhibition assay; type: cell-based; details: Plasmodium falciparum
Method: P. falciparum 3D7 parasites were grown and maintained in continuous culture, as previously described, with minor modifications. The growth of P. falciparum 3D7-infected erythrocytes subjected to treatment with varying amounts (0, 0.156, 0.3125, 0.625, 1.25, 2.5, and 5 μM) of EGCG was monitored using the P. falciparum lactate dehydrogenase (pLDH) method, as previously described. As a control, Chloroquine, a known antimalarial drug, was used as a positive control in the assay. Serially-diluted EGCG was added to each culture batch. Uninfected erythrocytes that were similarly treated with EGCG were included to cater for possible lysis of erythrocytes exposed to EGCG. A blank consisting of media and EGCG was also set up. P. falciparum 3D7-infected erythrocytes that were not exposed to EGCG treatment were used as the viability control, representing ‘100% growth’. Analysis of the growth inhibition assay data was carried out using GraphPad Prism 6 (San Diego, CA, USA). The assay was repeated three times.

PfHsp70-z [1] = molecular target: T1, PfHsp70-z (Plasmodium falciparum, UniProt Q8IC01); assay: Suppression of heat-induced aggregation of MDH (chaperone function); type: biochemical; details: 48 °C; for effect on chaperone activity (MDH aggregation): 5 mM ADP/ATP
T1 sequence (Q8IC01 entry or part of it): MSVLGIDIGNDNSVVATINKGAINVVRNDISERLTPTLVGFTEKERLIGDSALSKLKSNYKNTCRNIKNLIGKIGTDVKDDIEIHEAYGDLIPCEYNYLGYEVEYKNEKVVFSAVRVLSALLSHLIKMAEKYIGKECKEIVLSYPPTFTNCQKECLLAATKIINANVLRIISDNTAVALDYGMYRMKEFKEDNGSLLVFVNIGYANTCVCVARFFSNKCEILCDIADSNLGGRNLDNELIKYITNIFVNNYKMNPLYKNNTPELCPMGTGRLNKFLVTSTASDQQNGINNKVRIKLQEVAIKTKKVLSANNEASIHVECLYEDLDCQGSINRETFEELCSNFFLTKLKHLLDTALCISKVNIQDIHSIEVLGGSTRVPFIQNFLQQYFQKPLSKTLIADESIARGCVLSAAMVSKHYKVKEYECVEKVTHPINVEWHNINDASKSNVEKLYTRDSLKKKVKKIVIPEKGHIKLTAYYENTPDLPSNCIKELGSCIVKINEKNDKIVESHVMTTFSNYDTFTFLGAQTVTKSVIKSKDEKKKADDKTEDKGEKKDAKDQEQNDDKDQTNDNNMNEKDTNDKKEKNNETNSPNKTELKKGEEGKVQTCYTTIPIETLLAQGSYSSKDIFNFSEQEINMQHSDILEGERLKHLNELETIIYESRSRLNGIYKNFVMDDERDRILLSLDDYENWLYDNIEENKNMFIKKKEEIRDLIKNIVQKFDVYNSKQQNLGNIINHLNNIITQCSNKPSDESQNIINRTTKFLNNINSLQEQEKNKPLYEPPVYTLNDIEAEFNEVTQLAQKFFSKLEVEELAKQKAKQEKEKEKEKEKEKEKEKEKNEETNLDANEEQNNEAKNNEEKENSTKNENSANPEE
Method: (§1) The chaperone function of parasite Hsp70s was investigated by monitoring heat-induced aggregation of a model protein, malate dehydrogenase (MDH) from porcine heart (Sigma-Aldrich), as previously described, with minor modifications. Before conducting the assays, we first established that both purified preparations of PfHsp70-1 and PfHsp70-z were heat-stable at 48 °C. After this, we then investigated the effects of the chaperones (PfHsp70-1/PfHsp70-z) on the heat-induced aggregation of MDH. To determine the effects of EGCG on the chaperone function of the two proteins, the assay was repeated in the presence of 2.5 µM of EGCG. EGCG was used at this concentration (2.5 µM) because this was the lowest concentration at which it inhibited the function of the chaperones. […] For statistical analysis, a one-way ANOVA test was conducted using GraphPad Prism 6 (San Diego, CA, USA).

PfHsp70-1 [2] = molecular target: T2, PfHsp70-1 (Plasmodium falciparum, UniProt Q8IB24); assay: as above; type: biochemical; details: 48 °C; for effect on chaperone activity (MDH aggregation): 5 mM ADP/ATP
T2 sequence (Q8IB24 entry or part of it): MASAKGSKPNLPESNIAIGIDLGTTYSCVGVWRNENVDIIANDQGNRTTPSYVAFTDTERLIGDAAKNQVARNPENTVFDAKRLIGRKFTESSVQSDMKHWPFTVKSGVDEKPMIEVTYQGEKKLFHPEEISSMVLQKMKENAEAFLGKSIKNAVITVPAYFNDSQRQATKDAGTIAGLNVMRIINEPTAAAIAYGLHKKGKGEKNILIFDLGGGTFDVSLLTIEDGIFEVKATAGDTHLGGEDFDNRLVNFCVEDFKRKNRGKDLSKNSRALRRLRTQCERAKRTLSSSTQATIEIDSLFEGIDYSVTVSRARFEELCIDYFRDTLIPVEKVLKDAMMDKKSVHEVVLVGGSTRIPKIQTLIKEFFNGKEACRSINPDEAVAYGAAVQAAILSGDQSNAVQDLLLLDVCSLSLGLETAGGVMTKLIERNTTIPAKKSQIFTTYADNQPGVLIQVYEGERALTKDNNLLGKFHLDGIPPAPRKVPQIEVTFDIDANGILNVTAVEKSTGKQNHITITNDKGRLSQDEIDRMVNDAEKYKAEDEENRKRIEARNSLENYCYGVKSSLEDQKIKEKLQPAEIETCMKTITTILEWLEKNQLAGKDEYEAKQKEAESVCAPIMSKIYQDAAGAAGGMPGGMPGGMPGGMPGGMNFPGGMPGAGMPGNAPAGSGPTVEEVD
Method: as §1

PfHsp70-z [3] = molecular target: T1, PfHsp70-z; assay: Tryptophan/tyrosine fluorescence, tertiary conformation; details: EGCG 0–5 μM
Method: (§2) We further exposed the two proteins to varying amounts (0–5 µM) of EGCG and monitored he perturbation of the tertiary structural conformations of the proteins using both tyrosine and tryptophan fluorescence, as previously described. The respective recombinant protein (PfHsp70-1 of PfHsp70-z) at a final concentration of 0.45 μg/mL was incubated in assay buffer A (25 mM HEPES-KOH pH 7.5, 100 mM KCl, 10 mM MgOAc) at 20 °C either in the absence or presence of variable EGCG levels (0–5 μM). […] Tryptophan fluorescence spectra were recorded between 300 nm and 400 nm after initial excitation at 295 nm using a JASCO FP-6300 spectrofluorometer (Dunmow, UK). The combined fluorescence of tyrosine and tryptophan was monitored after initial excitation at 285 nm. Subsequently, fluorescence was monitored at wavelengths between 300 nm and 400 nm using a JASCO FP-6300 spectrofluorometer. The resultant spectra were averaged for least 15 scans and processed after subtraction of the baseline scan (buffer in which protein was excluded). A control consisting of a buffer containing EGCG, but lacking protein was used to account for baseline fluorescence.

PfHsp70-1 [4] = molecular target: T2, PfHsp70-1; assay: as above; details: EGCG 0–5 μM
Method: as §2

PfHsp70-1 [5] = molecular target: T2, PfHsp70-1; assay: SPR binding affinity to immobilised PfHsp70-1; details: EGCG vs ATP binding to PfHsp70-1
Method: (§3) The binding affinity of EGCG for the two P. falciparum Hsp70s was determined using a Bio-Rad ProteOn XPR36 system (Hercules, CA, USA), as previously described. Briefly, PfHsp70-1, PfHsp70-1NBD, and PfHsp70-z (as ligands) were separately immobilized onto an HTE chip at concentrations of 0.5 μg/mL and 1 μg/mL, respectively, in order to validate the data. […] In order to determine the association of EGCG with the respective ligand, the EGCG stock solution was prepared in deionised water. Aliquots of EGCG were prepared at final concentrations of 0, 125, 250, 500, 1000, and 2000 nM and injected at 100 μL/min into each horizontal channel. Association was allowed for 2 min and dissociation was monitored for 8 min. Data collected was double referenced using a buffer blank (buffer without EGCG) and a channel in which protein was excluded. Steady-state equilibrium constant data were processed and analysed using BioRad ProteOn Manager Version 3.1.0.6 (Hercules, CA, USA) and GE Healthcare Biosciences BIA evaluation Version 4.1.1 software (Uppsala, Sweden).

PfHsp70-z [6] = molecular target: T1, PfHsp70-z; assay: SPR binding affinity to immobilised PfHsp70-z; details: EGCG vs ATP binding to PfHsp70-z
Method: as §3

PfHsp70-z [7] = molecular target: T1, PfHsp70-z; assay: Basal ATPase activity, colourimetric Pi release; type: biochemical
Method: (§4) The basal ATPase activities of the parasite Hsp70s was assessed by a colourimetric-based method, as previously described. Briefly, 0.4 µM of recombinant proteins (PfHsp70-1/PfHsp70-z) was incubated in buffer HKMD (10 mM HEPES-KOH pH 7.5, 100 mM KCl, 2 mM MgCl2, 0.5 mM DTT) at 37 °C. […] The released inorganic phosphate was detected by adding 1.25% ammonium molybdate and 9% ascorbic acid and monitored using a M3 SpectraMax (Molecular Devices, Sunnyvale, CA, USA) spectrophotometer at 660 nm. To determine the effect of EGCG on the ATPase activity of parasite Hsp70s, the assay was repeated in the presence of varying amounts (0–5 µM) of EGCG.

PfHsp70-1 [8] = molecular target: T2, PfHsp70-1; assay: Basal ATPase activity, colourimetric Pi release; type: biochemical
Method: as §4

CCN(CC)CCCC(C)Nc1ccnc2cc(Cl)ccc12 (stereo not shown) [chloroquine]
IC50 (P. falciparum 3D7; 3D7, read-out: IC50 parasite growth): 0.0085 µM

Nc1ncnc2c1ncn2[C@@H]1O[C@H](COP(=O)(O)OP(=O)(O)OP(=O)(O)O)[C@@H](O)[C@H]1O [ATP]
effect on chaperone activity (MDH aggregation) (PfHsp70-z [1]): not affecting the activity | effect on chaperone activity (MDH aggregation) (PfHsp70-1 [2]): did inhibit the activity

Nc1ncnc2c1ncn2[C@@H]1O[C@H](COP(=O)(O)OP(=O)(O)O)[C@@H](O)[C@H]1O [ADP]
effect on chaperone activity (MDH aggregation) (PfHsp70-z [1]): did not alter the chaperone activity | effect on chaperone activity (MDH aggregation) (PfHsp70-1 [2]): did not alter the chaperone activity

O=C(O[C@@H]1Cc2c(O)cc(O)cc2O[C@@H]1c1cc(O)c(O)c(O)c1)c1cc(O)c(O)c(O)c1 [EGCG, (−)-Epigallocatechin-3-gallate]
IC50 (P. falciparum 3D7; 3D7, blood stages, pLDH, read-out: IC50 parasite growth): 2.9 µM | shift of peak wavelength, tryptophan and tyrosine fluorescence (PfHsp70-z [3]): red shift | shift of peak wavelength, tryptophan and tyrosine fluorescence (PfHsp70-1 [4]): red shift | fold higher affinity than ATP (PfHsp70-1 [5]): approximately 10 fold | effect on capability to suppress heat-induced aggregation of MDH (PfHsp70-z [1]; 2.5 µM EGCG): abrogated | lowest concentration at which it inhibited the function of the chaperones (PfHsp70-z [1]; MDH aggregation): 2.5 µM | effect on capability to suppress heat-induced aggregation of MDH (PfHsp70-1 [2]; 2.5 µM EGCG): abrogated | lowest concentration at which it inhibited the function of the chaperones (PfHsp70-1 [2]; MDH aggregation): 2.5 µM | fold higher affinity than ATP (PfHsp70-z [6]): approximately 10 fold | Ki (PfHsp70-z [7]): 2.34 µM | Vmax (PfHsp70-z [7]; EGCG 0.156 μM): 20.58 (±0.5) nmol/min/mg | Vmax (PfHsp70-z [7]; EGCG 0.3125 μM): 18.46 (±0.3) nmol/min/mg | Vmax (PfHsp70-z [7]; EGCG 0.625 μM): 19.66 (±0.5) nmol/min/mg | Vmax (PfHsp70-z [7]; EGCG 1.25 μM): 21.26 (±0.9) nmol/min/mg | Vmax (PfHsp70-z [7]; EGCG 2.5 μM): 18.88 (±0.6) nmol/min/mg | Vmax (PfHsp70-z [7]; EGCG 5.0 μM): 17.57 (±0.3) nmol/min/mg | Ki (PfHsp70-1 [8]): 1.72 µM | Vmax (PfHsp70-1 [8]; EGCG 0.156 μM): 28.22 (±1.5) nmol/min/mg | Vmax (PfHsp70-1 [8]; EGCG 0.3125 μM): 29.03 (±0.7) nmol/min/mg | Vmax (PfHsp70-1 [8]; EGCG 0.625 μM): 28.40 (±0.95) nmol/min/mg | Vmax (PfHsp70-1 [8]; EGCG 1.25 μM): 27.47 (±2.01) nmol/min/mg | Vmax (PfHsp70-1 [8]; EGCG 2.5 μM): 29.04 (±0.6) nmol/min/mg | Vmax (PfHsp70-1 [8]; EGCG 5.0 μM): 30.06 (±0.5) nmol/min/mg
